Experimental data reported in patent US8586618B2, “Furanone compounds and lactam analogues thereof” (Biosignal Limited, priority 2006, dated 2013).

Tests used:
[1] = tested on: LasR quorum sensing system; test: LasR assay (unstable gfp fused to elastase promoter); assay type: cell-based, Pseudomonas aeruginosa; conditions: for LasR % inhibition at 100 μg/ml: 100 μg/ml compound; for inhibition at 25 µg/mL / inhibition at 100 µg/mL / inhibition at 50 µg/mL: Pseudomonas aeruginosa; for inhibition at 25 µg/mL: read-out: LasR (% inhibition at 25 ug/ml compound); for inhibition at 100 µg/mL: read-out: LasR % inhibition at 100 μg/ml; for inhibition at 50 µg/mL: read-out: LasR % inhibition at 50 μg/ml
Method: Compounds of the present invention were also assayed using a LasR assay. The LasR assay provides a measurement of quorum sensing inhibition activity. […] In the LasR assay, an unstable gfp has been fused to the elastase promoter, so that the amount of Gfp is regulated by the QS system. The plasmid is put into Pseudomonas aeruginosa which makes its own AHL signals. The assay is performed by adding the compounds to be tested to the system at the beginning of the experiment, at different concentrations. Gfp expression is measured at different times during growth, ending at the 24 h time point. The percentage fluorescence was determined at the time point when the fluorescence reached its maximum in the control, usually around 11-12 h after inoculation.

[2] = tested on: V. fischeri luxRI system (AHL quorum sensing, gfp fused to luxI promoter); test: N-acylated homoserine lactone (AHL) quorum sensing assay, GFP reporter strain; assay type: cell-based, E. coli; conditions: for ID40 at 3 nM OHHL: value in brackets; for AIC40: inhibition index: slope of ID40 vs AHL concentration, lower is better
Method: Compounds of the present invention were compared to compounds of the prior art in order using an AHL-quorum sensing assay which utilises a reporter strain that expresses Green Fluorescent Protein (GFP) in the presence of AHL signals. The assay is performed by measuring GFP output in the presence of the compound to be measured and comparing the output to a control. By using multiple samples at varying concentrations of compound and AHL, an inhibition index of compound activity can be generated. The inhibition index used in the present example is the relative amount of compound required to reduce GFP expression to 40% of the control. The inhibition index is termed AIC40. Lower values of AIC40 represent better inhibitors of the AHL quorum sensing system.
The reporter strain of bacterium used in this assay is E. coli into which the V. fischeri luxRI system has been engineered. A gfp gene is fused to the QS controlled luxI promoter as is described in (Andersen et al., 2001, and Andersen et al, 1998).
Measurement of AIC40 (ID40 at 3 nM OHHL)
Determination of the activity of compounds using the E. coli based luxRI construct was performed as follows.
In a 15 mL plastic tube, mix 3 mL of o.n. culture of the lux reporter strain with 12 mL fresh medium, incubate at 37° C. Label six tubes, 10, 20, two 50 and two 100. To each of the tubes, add OHHL (3-oxohexanoyl homoserine lactone) to a final concentration of 10, 20, 50, or 100 nM respectively in the AB medium (add enough medium to distribute across the appropriate number of wells). To the first row of the microplate (row A), add 200 ul of the OHHL/AB mixture. To the remaining rows (B-H) add 100 ul of the OHHL/AB mixture. To the first row (A) add compounds to be tested to the 200 ul mixture of OHHL/AB. Make a dilution series in the first 7 rows by transferring 100 μL from wells in row 1 to wells in row 2 and so on. Discard the remaining 100 μL from row 7. Add 100 μL diluted lux monitor to each well. Incubate the plate 2 hours at 37° C. and measure green fluorescence using the “Victor” plate reader.
Calculate ID40 for each column. To do this, calculate the relative activity in each well. […] Make a plot for each concentration of OHHL vs. the range of compound concentrations used. Calculate the amount of compound needed to lower the relative activity to 40%, this is termed inhibiting dose 40%, ID40. For each compound an inhibition index, AIC40, is found as follows: plot ID40 against its respective AHL concentration; AIC40 is the slope of the best straight line through the plotted points and origin.

[3] = tested on: E. coli biofilm; test: Inhibition of biofilm formation, Petri dish model, E. coli; assay type: cell-based; conditions: 48 h exposure
Method: (§1) Compounds were run in a Petri dish model—where the cells of E. coli or Pseudomonas aeruginosa were exposed to the compound for 48 h. The amount of biofilm was determined by combining image data of the XY (surface cover in one plane) and XZ (depth). The controls gave good biofilm cover and some structure formation.

[4] = tested on: Pseudomonas aeruginosa biofilm; test: Inhibition of biofilm formation, Petri dish model, Pseudomonas aeruginosa; assay type: cell-based; conditions: 10 μg/mL, 48 h exposure
Method: as §1

[5] = amount lowering GFP activity to 40%

Molecule | melting point | AIC40 [2] | inhibition at 25 µg/mL [1] | also measured
(Z)-5-(4-(trifluoromethyl)benzylidene)furan-2(5H)-one [Compound 29] |  |  |  | LasR (% inhibition at 25 ug/ml compound) [1]: 15.8%; LasR % inhibition at 100 μg/ml [1]: 38.4%
O=C1C=C(c2ccc(C(F)(F)F)cc2)/C(=C/c2ccc(C(F)(F)F)cc2)O1 [Compound 17, (Z)-4-(4′-(trifluoromethyl)phenyl)-5-(4″-(trifluoromethyl)benzylidene)furan-2(5H)-one] | 127.5 to 129 °C |  |  | 
(Z)-5-(4-fluorobenzylidene)furan-2(5H)-one [Compound 28] |  |  |  | LasR (% inhibition at 25 ug/ml compound) [1]: 13%; LasR % inhibition at 100 μg/ml [1]: 53%
Cc1noc(C)c1C1=CC(=O)OC1 [Compound 7, 4-(3′,5′-Dimethylisoxazol-4′-yl)furan-2(5H)-one] | 101 to 103 °C |  |  | 
O=C1C=C(c2ccsc2)CO1 [Compound 14, 4-(Thiophen-3′-yl)furan-2(5H)-one] | 130.5 to 132 °C | 4.9 | 15% | ID40 at 3 nM OHHL [2]: 60 µM
O=C1C=C(c2ccccc2)/C(=C/c2cccc(C(F)(F)F)c2)O1 [Compound 13] | 108 to 110 °C |  |  | 
O=C1C=C(c2ccc(F)cc2)CN1 [Compound 36, 4-(4′-Fluorophenyl)-1H-pyrrol-2(5H)one] | 190 °C |  |  | 
O=C1C=C(c2ccc(F)cc2F)CO1 [Compound 1, 4-(2′,4′-Difluorophenyl)furan-2(5H)-one] |  | 7.6 |  | ID40 at 3 nM OHHL [2, 5]: 17.83
O=C1C=C(c2ccc(C(F)(F)F)cc2)CO1 [Compound 3, 4-(4′-Trifluoromethylphenyl)furan-2(5H)-one] |  | 0.77 | 22% | ID40 at 3 nM OHHL [2, 5]: 4.37
O=C1C=C(c2ccc(F)cc2)CO1 [Compound 2, 4-(4′-Fluorophenyl)furan-2(5H)-one] |  | 14.39 |  | ID40 at 3 nM OHHL [2, 5]: 39.4
O=C1C=C(Br)/C(=C/c2cccs2)O1 [Compound 26] |  |  | 30% | inhibition at 100 µg/mL [1]: 76%
(Z)-4-(3′-(Trifluoromethyl)phenyl)-5-(3″-(trifluoromethyl)benzylidene)furan-2(5H)-one [Compound 23] |  | 4.64 |  | ID40 at 3 nM OHHL [2, 5]: 22.1; LasR (% inhibition at 25 ug/ml compound) [1]: 23%; LasR % inhibition at 100 μg/ml [1]: 46.4%
O=C1C=C(c2ccc(Br)cc2)CN1 [Compound 35, 4-(4′-Bromophenyl)-pyrrol-2(5H)-one] | 233 to 235 °C (dec.) |  |  | 
Cn1cc(C2=CC(=O)OC2)cn1 [Compound 12, 4-(N-Methylpyrazol-4′-yl)furan-2(5H)-one] | 181 to 182 °C |  |  | inhibition at 50 µg/mL [1]: 22.9%
O=C1C=C(c2cccc(C(F)(F)F)c2)/C(=C/c2cccc(C(F)(F)F)c2)O1 [Compound 24] |  |  | 19% | inhibition at 100 µg/mL [1]: 35%
CC1OC(=O)C=C1c1ccccc1 (centres unmarked) [Compound 27, 5-methyl-4-phenyl-2(5H)furanone] |  |  | 9% | inhibition at 100 µg/mL [1]: 57%
O=C1C=C(Br)CO1 [Compound 11, 4-Bromofuran-2(5H)-one] | 72 to 74 °C |  |  | 
O=C1C=C(Br)/C(=C/c2ccsc2)O1 [Compound 25] |  |  | 20% | inhibition at 100 µg/mL [1]: 78%
O=C1C=C(c2ccc(C(F)(F)F)cc2C(F)(F)F)CO1 [Compound 15, 4-(2′,4′-Bis(trifluoromethyl)phenyl)furan-2(5H)-one] | 116 to 117 °C |  |  | 
O=C1C=C(c2cccs2)CO1 [Compound 6, 4-(Thiophen-2′-yl)furan-2(5H)-one] | 94 to 96.5 °C | 24.6 | 10% | ID40 at 3 nM OHHL [2, 5]: 58.7; % biofilm ([3]; 25 μg/mL): 87.7%; % biofilm ([3]; 40 μg/mL): 97%; % biofilm [4]: 77%
O=C1C=C(c2ccccc2C(F)(F)F)CO1 [Compound 9, 4-(2′-Trifluoromethylphenyl)furan-2(5H)-one] | 49 to 50 °C |  |  | 
O=C1C=C(c2ccc(OC(F)(F)F)cc2)CO1 [Compound 5, 4-(4′-Trifluoromethoxyphenyl)furan-2(5H)-one] | 122 to 123 °C | 5.9 | 19.3% | ID40 at 3 nM OHHL [2, 5]: 11.37; inhibition at 50 µg/mL [1]: 43.2%
O=C1C=C(c2cccc(C(F)(F)F)c2)CO1 [Compound 8, 4-(3′-Trifluoromethylphenyl)furan-2(5H)-one] | 124 to 125 °C |  | 22% | inhibition at 50 µg/mL [1]: 42.2%
O=C1C=C(c2ccc(OC(F)(F)F)cc2)/C(=C/c2ccc(OC(F)(F)F)cc2)O1 [Compound 21, (Z)-4-(4′-(Trifluoromethoxy)phenyl)-5-(4″-(trifluoromethoxy)benzylidene)furan-2(5H)-one] |  | 4.4 | 14.7% | ID40 at 3 nM OHHL [2, 5]: 148; inhibition at 100 µg/mL [1]: 47%
